Results from patent publication US12576069B2, “Compositions and methods for treating slow-flow vascular malformations” (YALE UNIVERSITY, priority 2019, dated 2026).
Like-named read-outs stand apart in the source and are kept apart here.

Experiments:
[1] = cited from earlier work
[2] = system: congenital vascular malformations; conditions: conventional treatment of vascular malformations; at times lethal; cited from earlier work
[3] = system: complicated vascular malformations; conditions: cited from earlier work
[4] = oral rapamycin, toxicities attributable to rapamycin

Procedure for venous malformation: A relatively healthy patient with severely symptomatic venous malformations of the subcutaneous and intramuscular components of their thigh was treated according to methods of the disclosure. Their lesions were examined and diagnosis of the condition was made and confirmed based on duplex ultrasound and contrast enhanced MRI. […] Solutions were delivered to the patient using an operating suite using a sterile syringe. A total of 2 mL of omnipaque intravenous contrast was added into the mixture for radiopacity purposes under fluoroscopy and for in vivo visualization of the drug. Final concentration of the mixture was approximately 1 mg/mL This mixture was agitated via a three-way stopcock in the absence of air. The venous malformations were accessed percutaneously, using ultrasound and x-ray guidance. […] Different components of this multi focal venous malformation were similarly targeted and treated. […] Needle access tracts were plugged using a collagen matrix foam, and a sterile dressing was applied. The procedure was done under general endotracheal anesthesia, and the patient received postoperative anti-inflammatory and analgesic medications. […] A healthy patient with a disfiguring, symptomatic venous malformation of the subcutaneous tissues of the left nare was treated according to methods of the disclosure. Their lesion was examined, and diagnosis of the condition was made and confirmed based on contrast enhanced MRI. […] Solutions were delivered to the patient using an operating suite using a sterile syringe. A total of 2 mL of omnipaque intravenous contrast was added into the mixture for radiopacity purposes under fluoroscopy and for in vivo visualization of the drug. Final concentration of the mixture was approximately 1 mg/mL. This mixture was agitated via a three-way stopcock in the absence of air. The venous malformation was accessed percutaneously, using ultrasound and x-ray guidance. […] Different components of this focal venous malformation were similarly targeted and treated. […] Needle access tracts were plugged using a collagen matrix foam, and a sterile dressing was applied. The procedure was done under general endotracheal anesthesia, and the patient received postoperative anti-inflammatory and analgesic medications.

CO[C@H]1C[C@@H]2CC[C@@H](C)[C@@](O)(O2)C(=O)C(=O)N2CCCC[C@H]2C(=O)O[C@H]([C@H](C)C[C@@H]2CC[C@@H](OC(=O)C(C)(CO)CO)[C@H](OC)C2)CC(=O)[C@H](C)/C=C(\C)[C@@H](O)[C@@H](OC)C(=O)[C@H](C)C[C@H](C)/C=C/C=C/C=C/1C [Temsirolimus]
pain relief at follow-up (venous malformation; Example 1, post-operative day two, 14, and 90): excellent pain relief
venous flow in the malformation, color flow Doppler (venous malformation; Example 2, left nasal venous malformation, FIGS. 5A-5B): diminished venous flow
pain relief at follow-up (venous malformation; Example 2, post-operative day 14 and day ~90): partial pain relief
fevers or infection at follow-up (venous malformation; human, in vivo): no evidence of fevers or infection
fevers, infection at follow-up (venous malformation; human, in vivo): no evidence of fevers, infection
normal arterial flow adjacent to the malformation, spectral waveform analysis (venous malformation; human, in vivo): preservation of intervening normal arterial network of the face
perioperative complications (venous malformation; human, in vivo): no perioperative complications
post-operative labs (venous malformation; human, in vivo): within expected, normal limits
peak concentration Cmax, temsirolimus compared with sirolimus ([1]; IV infusion, theoretical comparison of equal units): almost similar

CCO [absolute ethanol, ethanol]
side effect profile [2]: up to 50%

CO[C@H]1C[C@@H]2CC[C@@H](C)[C@@](O)(O2)C(=O)C(=O)N2CCCC[C@H]2C(=O)O[C@H]([C@H](C)C[C@@H]2CC[C@@H](O)[C@H](OC)C2)CC(=O)[C@H](C)/C=C(\C)[C@@H](O)[C@@H](OC)C(=O)[C@H](C)C[C@H](C)/C=C/C=C/C=C/1C [rapamycin]
patients taken off of the study due to persistent adverse effects ([3]; oral rapamycin, phase II trial enrolling 61 patients): Two
Grade 3 and higher blood/bone marrow toxicity, share of patients [3, 4]: 27%
Grade 3 and higher gastrointestinal toxicity, share of patients [3, 4]: 3%
Grade 3 and higher metabolic/laboratory toxicity, share of patients [3, 4]: 3%
other commonly reported negative side effects ([3]; systemic rapamycin): stomatitis, headache, infections, myelodepression, acne, and hyperlipidemia
sirolimus AUC relative to temsirolimus AUC ([1]; single 25 mg intravenous dose of temsirolimus, patients with cancer): 2.7 fold
